# Experimental data: ChEMBL document CHEMBL1150920, “Three new ellagic acid derivatives from the bark of Eschweilera coriacea from the Suriname rainforest” (1998)
# Tested on: Saccharomyces cerevisiae
# Experiment: DNA damaging activity against Sc-7 yeast assessed as drug level required to produce 12 mm zone of inhibition
# Format: functional
compound,measurement,value
O=c1oc2c(O)c(Oc3ccc(O)c(O)c3O)cc3c(=O)oc4c(O)c(O)cc1c4c23 [ESCHWEILENOL A],IC12,1000 µg/mL
C[C@@H]1O[C@@H](Oc2cc3c(=O)oc4c(O)c(O)cc5c(=O)oc(c2O)c3c45)[C@H](O)[C@H](O)[C@H]1O [ESCHWEILENOL C],IC12,2000 µg/mL
